Results taken from patent US20100233249A1, “CONTRACEPTIVE METHODS AND COMPOSITIONS RELATED TO PROTEASOMAL INTERFERENCE” (priority 2003, published 2010).
Entries after “also recorded” stand apart in the source; their conditions may differ. Where a SMILES comes first, the peptide text is derived from it. The star is where a group is joined. Cbz = O=C(OCc1ccccc1)*

Key:
[1] = tested on: zona-enclosed oocytes / boar spermatozoa; assay: Porcine in vitro fertilization of zona-enclosed (zona-intact) oocytes with inhibitor or antibody in the fertilization medium; assay type: cell-based; settings: for Monospermic (%) / Monospermic (number of oocytes) / Not fertilized (%) / Not fertilized (number of oocytes) / Polyspermic (%) / Polyspermic (number of oocytes): 10 uM in culture medium at the time of insemination, 20 h p.i.; for penetration of ZP: 100 uM concentration; for fertilization of zona-enclosed (zona-intact) oocytes: agent in fertilization medium during porcine IVF
[2] = tested on: ubiquitin-immuno-reactive ZP proteins; assay: Western blotting / Coomassie staining of ubiquitin-immuno-reactive ZP proteins after IVF; assay type: cell-based, porcine; settings: MG132 in fertilization medium; 6 h p.i.
Experimental: SDS-PAGE and Western blotting were carried out as generally described in Sambrook et al. (2001). Oocytes and zygotes were removed from culture at given time points, washed repeatedly in a protein-free TALP HEPES and 350 zygotes per group were boiled for 5 min in […] of loading buffer containing Tris (50 mM), β-mercaptoethanol (5%), glycerol (10%), SDS (2%) and PMSF (100 mM). Boar sperm proteins were extracted by grinding in extraction buffer (50 mM Tris, 20 mM imidazole, 1 mM EDTA, 5 mM benzamidine HCl, 5 μg/ml leupeptine, 1 μg/ml pepstatin A, 100 mM PMSF and 0.1% SDS), centrifuged at 17000×g for 30 min. β-mercaptoethanol, glycerol, SDS were added to the supernatants, achieving the final concentrations as that of the loading buffer. Human spermatozoa were boiled with loading buffer, followed by centrifugation at 25000×g for 30 min to remove the DNA pellet. […] After incubating overnight with the primary anti-ubiquitin antibodies and then with the appropriate biotin-conjugated secondary antibodies, the signals were detected with alkaline phosphatase reaction, using Vectastain ABC-AmP kit (Vector Lab Inc., Burlingame, Calif.).
Next, it was determined whether some of the ubiquitin-immuno-reactive ZP substrates undergo degradation after sperm binding to ZP, and whether such degradation can be prevented by proteasomal inhibitors. […]

rat ova = settings: Josefsberg et al., 2000; cited from earlier work
pronuclei of bovine ova = assay: Pronuclear development in bovine fertilized ova (immunofluorescence); assay type: cell-based
Experimental: The ubiquitin-proteasome pathway was until recently ascribed solely to cytoplasmic compartment. The presence and proteolytic activity of proteasomes in the nuclear compartment of […] was analyzed. Specific immune sera were used for the immunolocalization of proteasomal subunits LMP2, α/β and MECL1 in bovine pronuclear zygotes at various stages of pronuclear development. […] Proteasomal subunits started to infiltrate both male and female pronuclei at the initial stage of sperm nuclear decondensation. Both the male and the female pronuclei become occupied by proteasomes prior to reaching full size and apposition. High density of proteasomes was observed inside the apposed, full-sized pronuclei in both monospermic and polyspermic ova, and in cases of asynchronous pronuclear development. […] The sperm tail was visualized by the preincubation of spermatozoa prior to fertilization with a vital mitochondrial dye MitoTracker Green FM (green).
Such fertilization in presence of low concentration MG132 allowed the observation of the effects of proteasomal interference on pronuclear development. […] DNA was stained with blue fluorecent DAPI and sperm tails inside the fertilized ova were identified by the presence of green fluorescence, which accumulated in sperm mitochondrial sheath during sperm preincubation with MitoTracker GreenFM. […]

[3] = tested on: bovine ova / bull spermatozoa; assay: Bovine in vitro fertilization; assay type: cell-based; settings: 10 μM MG132
[4] = tested on: bovine ova / bull spermatozoa; assay: Bovine in vitro fertilization; assay type: cell-based
Experimental: The effect of proteasomal interference on the ability of bull spermatozoa to fertilize bovine ova was analyzed in vitro. Specific, fully reversible proteasomal inhibitor MG132 (100 μM) was added to fertilization medium at the time of insemination. This allowed fertilization to occur only in 3 out of […] ova examined at 20 h post insemination (2.8% rate of fertilization; Table 2). […] Proteasomes in pronuclei were detected with an antibody against α-type and β-type proteasomal subunits. DNA was visualized with DAPI (blue).
However, several groups of ova were preincubated with 100 μM MG132 for 2 hours prior to fertilization to rule out that MG132 could block or hinder fertilization by a direct effect on zona pellucida oolemma or ooplasm, as opposed to an inhibitory effect on sperm acrosome-borne proteasomes (Sutovsky et al., 2003a, b).

[5] = tested on: boar spermatozoa bound to the zona pellucida; assay: Sperm-zona binding and sperm acrosomal status (DAPI, c-Yes immunofluorescence); assay type: cell-based, porcine
Experimental: To evaluate sperm-zona binding and sperm acrosomal status, zona-enclosed oocytes were fixed and the tyrosine kinase c-Yes, known to be present in the subacrosomal and outer acrosomal layer of perinuclear theca in spermatozoa with an intact acrosome (Leclerc and Goupil, 2002) was evaluated by immunofluorescence. The number of spermatozoa bound to the zona pellucida was determined after staining with DAPI. Five eggs per group were counterstained with an antibody against the acrosomal tyrosine kinase c-Yes (see Immunofluorescence) and DAPI and photographed at 60× magnification. ZP-bound acrosome-reacted and acrosome intact spermatozoa were counted and the values were expressed as a percent (%) of acrosome intact sperm/egg. Treatment results were compared by χ2 test and by general linear model procedures of SAS 8.2.
It was first observed that proteasomal inhibitors lactacystin and MG132 prevent fertilization in the course of studies aimed at confirming the proteasomal route of degradation of the paternal, sperm mitochondria inside the porcine zygote (Sutovsky et al., 2003). This study was followed up on by experiments designed to determine at which step of fertilization the inhibitors exert the block. […] The experiment was repeated four times with consistent results. […] To rule out that MG132 affects sperm viability, sperm-zona binding or acrosomal exocytosis, oocytes fertilized in the presence of 10 μM MG132 were fixed with their zona pellucida intact at 20 h p.i. Sperm heads bound to ZP were detected with DAPI and intact acrosomes were detected by antibodies against tyrosine kinase c-Yes, known to reside in the sub-acrosomal and outer acrosomal layer of perinuclear theca of acrosome-intact spermatozoa (FIG. 1 A-D). Since the spermatozoa in this experiment were pre-labeled with MitoTracker CMTM Ros, the sperm mitochondrial sheaths were rendered detectable inside the fertilized oocytes. […] However, there was no significant difference in the number of sperm bound per egg (99.3 with MG132 vs. 93.3 in control) or in the percentage of acrosome-intact, zona-bound sperm (2.01% with MG132 vs. 2.14% in control).

[6] = tested on: zona-free oocytes / boar spermatozoa; assay: Porcine in vitro fertilization of zona-free oocytes; assay type: cell-based
Experimental: IVF was performed using zona-enclosed and zona-free (ZF or ZP−) oocytes in the presence or absence of MG132 and antibody MECL-1. Removal of the zona pellucida was accomplished by a brief (30 sec) exposure of oocytes to 0.5% pronase (Sigma, St. Louis, Mo.). Oocytes were washed extensively and ZF oocytes were allowed to recover from enzymatic treatment for 1 h prior to insemination. For IVF, ZF oocytes were co-incubated with 1×10^5 sperm/ml while zona-enclosed/zona-intact (ZI or ZP+) oocytes were treated as described above. Oocytes were fixed 12 h post insemination (p.i.) in 25% acetic acid/ethanol and stained with 1% orcein to determine the incidence of fertilization. In some experiments, oocytes were evaluated by immunofluorescence microscopy, detecting the presence of pronuclei and sperm tails in the zygotic cytoplasm.
To ascertain that the fertilizing capability of boar spermatozoa was not diminished by some non-specific effect of proteasomal inhibitors on the sperm motility or sperm ability to fuse with the oocyte plasma membrane, porcine oocytes were stripped of ZP and fertilized with acrosome-intact spermatozoa in the presence or absence of MG132 (FIG. 5 A-H). […] MG132 had no effect on the fertilization of zona-intact oocytes when either oocytes or spermatozoa were pre-incubated with it and used for insemination after extensive washing.

[7] = 100 μM at fertilization, 20 h post insemination
[8] = 100 μM at fertilization, 20 h post insemination, listed as MG 132
[9] = 100 μM ovum preincubation 2 h, IVF in absence of MG132
[10] = 10 μM MG132, 20 hours post insemination

Compound: CC(=O)N[C@@H](CSC(=O)[C@]1([C@@H](O)C(C)C)NC(=O)[C@H](C)[C@@H]1O)C(=O)O [lactacystin]
- Monospermic (%) [1]: 65%
- Monospermic (number of oocytes) [1]: 13
- Not fertilized (%) [1]: (25%)
- Not fertilized (number of oocytes) [1]: 5
- Polyspermic (%) [1]: 10%
- Polyspermic (number of oocytes) [1]: 2
- Monospermic (%) ([1]; listed as Lactacystin): (65%)
- Polyspermic (%) ([1]; listed as Lactacystin): (10%)
- fertilization at threshold concentration ([1]; 10 uM lactacystin): did not prevent fertilization
- penetration of ZP [1]: completely inhibited
- effect on fertilization rates ([1]; added at the time of insemination): dose-dependent effect
- fertilization of zona-enclosed (zona-intact) oocytes [1]: completely prevented fertilization
- block of fertilization ([1]; lactacystin at 100 μm concentration): 100%

Compound: CC(C)C[C@@H](C=O)NC(=O)[C@H](CC(C)C)NC(=O)[C@H](CC(C)C)NC(=O)OCc1ccccc1 [MG132, Z-Leu-Leu-Leu-CHO] (Cbz-Leu-Leu-Leu-aldehyde)
- degradation of ZP-contributed oocyte proteins after IVF [2]: effectively prevented
- progression of meiosis and pronuclear development (rat ova): inhibited
- pronuclear development in fertilized ova (pronuclei of bovine ova; fertilized in presence of 10 μM MG132): Abnormal pronuclear development and premature chromosome condensation (PCC) was observed
- import of proteasomal subunits into pronuclei (pronuclei of bovine ova; preincubation of ova with 100 μM MG132 prior to fertilization): had no effect
- block of bovine fertilization [3]: inhibited the fertilization only partially
- average fertilization rate ([3]; two separate trials): 38.2%
- block of bovine fertilization ([4]; 100 μM MG132): completely
- M-II/partheno (number of ova) ([4]; 100 μM at fertilization): 40
- Partheno (number of ova) ([4]; 100 μM at fertilization): 0
- Fertilized (%), rate of fertilization [4, 7]: 2.8%
- Fertilized (number of ova) [4, 7]: 3
- Fertilized (%), rate of fertilization [4, 8]: (2.44%)
- Fertilized (number of ova) [4, 8]: 1
- Fertilized (%), fertilization rate [4, 9]: 97.5%
- Fertilized (number of ova) [4, 9]: 40
- M-II/partheno (number of ova) [4, 9]: 1
- Partheno (number of ova) [4, 9]: 0
- Fertilized (%), fertilization rate ([4]; 100 μM ovum preincubation 2 h, IVF in absence of MG132, listed as MG 132): (97.56%)
- effect on fertilization or pronuclear development ([4]; preincubation of unfertilized ova with 100 μM MG132 for 2 h prior to IVF in absence of MG132): had no effect on fertilization or pronuclear development
- anomalies in oocyte morphology ([4]; treatment during bovine IVF): Neither MG132 nor anti-MECL1 treatments were accompanied by identifiable anomalies
- fertilization ([1]; 10 μM MG132, fixed at 20 h p.i.): 0%
- Monospermic (number of oocytes) [1]: 0
- Not fertilized (%) [1]: (100%)
- Not fertilized (number of oocytes) [1]: 19
- Polyspermic (number of oocytes) [1]: 0
- penetration of ZP [1]: completely inhibited
- oocytes in which fertilization was prevented ([1]; MG132 added at the time of insemination, four trials): 100%
- fertilization of zona-enclosed (zona-intact) oocytes [1]: completely prevented fertilization; also recorded: inhibited in vitro fertilization
- fertilization of zona-intact oocytes after pre-incubation ([1]; oocytes or spermatozoa pre-incubated with MG132, extensive washing before insemination): had no effect
- gamete viability, sperm-egg binding and sperm-acrosome reaction [5, 10]: does not impair
- spermatozoa with intact acrosomes on an oocyte (FIG. 1C) [5, 10]: three
- number of sperm bound per egg ([5]; 10 μM MG132, 20 h p.i.): 99.3
- percentage of acrosome-intact, zona-bound sperm ([5]; 10 μM MG132, 20 h p.i.): 2.01%
- sperm-oocyte binding examined by light microscopy ([5]; ZP+/MG132+ zygotes used for western blotting): not affected
- fertilization of zona-free oocytes ([6]; agent present during porcine IVF): had no effect
- zona-free oocytes fertilized ([6]; in the presence or absence of MG132, most polyspermic): 92-96%
